In experiment [1] the target is T1, yeast RNA triphosphatase (Cet1; S. cerevisiae RTPase) (Saccharomyces cerevisiae, UniProt O13297).
T1 sequence (O13297 2-549): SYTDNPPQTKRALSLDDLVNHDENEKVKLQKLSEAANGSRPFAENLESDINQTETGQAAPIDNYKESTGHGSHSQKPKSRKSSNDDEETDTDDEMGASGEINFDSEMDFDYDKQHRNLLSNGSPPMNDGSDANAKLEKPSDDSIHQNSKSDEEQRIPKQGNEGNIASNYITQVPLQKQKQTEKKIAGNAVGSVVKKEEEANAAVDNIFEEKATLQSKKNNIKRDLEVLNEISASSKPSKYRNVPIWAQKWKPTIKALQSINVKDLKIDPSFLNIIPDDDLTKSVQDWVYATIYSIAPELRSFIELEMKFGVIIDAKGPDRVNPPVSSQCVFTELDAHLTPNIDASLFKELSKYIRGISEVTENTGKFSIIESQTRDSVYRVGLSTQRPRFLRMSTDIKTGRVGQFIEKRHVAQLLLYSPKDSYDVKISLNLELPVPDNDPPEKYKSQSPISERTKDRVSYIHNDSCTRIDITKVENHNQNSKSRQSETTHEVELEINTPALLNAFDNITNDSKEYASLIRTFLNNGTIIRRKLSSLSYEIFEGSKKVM
In words: inhibition of [γ-32P]GTP hydrolysis, TLC of released phosphate. Format: biochemical.

Experiment [2] has as its target T1, yeast RNA triphosphatase (Cet1; S. cerevisiae RTPase). In words: GTPase inhibition kinetics, TLC. The experiment is classed as biochemical.

What is called IC50 is the midpoint of a concentration-inhibition curve. `O=P(O)(O)OP(=O)(O)OP(=O)(O)OC[C@H]1O[C@@H](n2cnc3c(S)ncnc32)[C@H](O)[C@@H]1O` [A-18]: the half-maximal inhibitory concentration (IC50) in experiment [1] turned out to be 8.1 µM. In general, Ki refers to a dissociation constant, usually derived from enzyme kinetics or from competition with a known ligand. On to `Nc1nc2c(ncn2[C@@H]2O[C@H](COP(=O)(O)OP(=O)(O)OP(=O)(O)O)[C@@H](O)[C@H]2O)c(=O)[nH]1` [GTP], for which the 50% inhibitory concentration (IC50) in experiment [1] is 87 µM. Also, the affinity in experiment [2] corresponds to a Ki of 16 µM. For `Cn1c(N)nc2c(ncn2[C@@H]2O[C@H](COP(=O)(O)OP(=O)(O)OP(=O)(O)O)[C@@H](O)[C@H]2O)c1=O` [A-4], the IC50 in experiment [1] came out at 8.1 µM. This compound gave a Ki in experiment [2] of 1.5 µM. For `COc1nc(N)nc2c1ncn2[C@@H]1O[C@H](COP(=O)(O)OP(=O)(O)OP(=O)(O)O)[C@@H](O)[C@H]1O` [A-5], in experiment [1], the concentration for half-maximal inhibition (IC50) amounted to 150 µM. This compound had a Ki in experiment [2] of 27 µM. The matching figures for `O=c1[nH]c(=O)c2ncn([C@@H]3O[C@H](COP(=O)(O)OP(=O)(O)OP(=O)(O)O)[C@@H](O)[C@H]3O)c2[nH]1` [A-8]: 10 µM and 1.8 µM.

On to `O=P(O)(O)OP(=O)(O)OP(=O)(O)O` [Tripoly-PO4], for which the IC50 in experiment [1] stood at 0.4 µM. As to `O=P(O)(O)OP(=O)(O)OP(=O)(O)OC[C@H]1O[C@@H](n2cnc3c(Cl)ncnc32)[C@H](O)[C@@H]1O` [A-11], in experiment [1], the IC50 was found to be 2 µM. Also, the Ki in experiment [2] was 0.4 µM. The matching figures for `Nc1nc2c(ncn2[C@H]2CC[C@@H](COP(=O)(O)OP(=O)(O)OP(=O)(O)O)O2)c(=O)[nH]1` [A-12]: 6.1 µM and 1.1 µM. The matching figures for `Nc1nc2c(ncn2[C@@H]2O[C@H](COP(=O)(O)OP(=O)(O)OP(=O)(O)O)[C@@H](O)[C@H]2O)c(=S)[nH]1` [A-9]: 16 µM and 2.9 µM. As for `Nc1nc2c(ncn2[C@H]2C[C@H](O)[C@@H](COP(=O)(O)OP(=O)(O)OP(=O)(O)O)O2)c(=O)[nH]1` [dGTP], the IC50 in experiment [1] was found to be 76 µM. Moreover, the Ki in experiment [2] worked out at 14 µM. For `Nc1nc(Cl)c2ncn([C@@H]3O[C@H](COP(=O)(O)OP(=O)(O)OP(=O)(O)O)[C@@H](O)[C@H]3O)c2n1` [A-6], the IC50 in experiment [1] worked out at 53 µM. This compound also displayed an inhibition constant (Ki) in experiment [2] of 9.6 µM.

These data come from article PMC2699512 (Nucleic Acids Research, 2009).
